According to patent US9359338B2, “Cyclopropanecarboxamido-substitute aromatic compounds as anti-tumor agents” (Crown Bioscience Inc. (Taiwan), priority 2012, dated 2016):

Assays:
KDR kinase (790-1356 AA) = KDR kinase (790-1356 AA) (Homo sapiens (Human), UniProt P35968); assay: Inhibitory activity at KDR kinase (Lance Ultra Ulight-TK assay); type: biochemical
Outline: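 Kinase (20 nM final) and compound were premixed 20 min at 30 °C, then phosphorylation ran 2 h at 30 °C with ATP at 90 μM and Ulight-TK substrate at 50 μM, pH 7.5, Mg2+ and Mn2+ present.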

B-Raf kinase = B-Raf kinase (Homo sapiens (Human), UniProt P15056); assay: Inhibitory activity at B-Raf kinase (ADP-GLO assay); type: biochemical
Outline: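 B-Raf (5 nM) was preincubated with compound (0.25% DMSO final) for 20 min at 30 °C in 50 mM Hepes pH 7.5, 10 mM Mg²⁺, 1 mM EGTA, 2 mM DTT. Reaction with 6 μM ATP and 30 nM GST-MEK1 ran 2 hrs at 30 °C. ADP was detected by ADP-GLO luminescence, giving IC50 values.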

pERK in MDA-MB-231 cells = assay: Inhibitory activity at pERK (In Cell Western, MDA-MB-231 cells); type: cell-based; conditions: Homo sapiens, MDA-MB-231, MDA-MB-231 cells; read-out: MDA-MB-231 pERK IC50
Outline: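 pERK was measured by in-cell immunofluorescence (PI nuclear counterstain, Acumen read-out) in fixed MDA-MB-231 cells. Compound exposure lasted 2 h in DMEM with 0.1% BSA, using eight 3-fold dilutions starting at 30 μM final and 0.3% DMSO. IC50 values were derived from the resulting curves.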

PLC-PRF-5 cells = assay: Inhibition of proliferation of PLC-PRF-5 cells (ATPlite); type: cell-based; conditions: Homo sapiens, PLC-PRF-5, PLC-PRF-5 cells; read-out: PLC-PRF-5 cell proliferation IC50
Outline: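 Antiproliferative IC50 from luminescent ATP detection (ATPlite) after 96 h compound exposure at 37 °C. Cells grown in DMEM plus 10% FBS and allowed 2 h to settle, then dosed with eight 3-fold dilutions topping at 30 μM final, DMSO 0.3%.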

Chain of B-Raf kinase (P15056 416-766): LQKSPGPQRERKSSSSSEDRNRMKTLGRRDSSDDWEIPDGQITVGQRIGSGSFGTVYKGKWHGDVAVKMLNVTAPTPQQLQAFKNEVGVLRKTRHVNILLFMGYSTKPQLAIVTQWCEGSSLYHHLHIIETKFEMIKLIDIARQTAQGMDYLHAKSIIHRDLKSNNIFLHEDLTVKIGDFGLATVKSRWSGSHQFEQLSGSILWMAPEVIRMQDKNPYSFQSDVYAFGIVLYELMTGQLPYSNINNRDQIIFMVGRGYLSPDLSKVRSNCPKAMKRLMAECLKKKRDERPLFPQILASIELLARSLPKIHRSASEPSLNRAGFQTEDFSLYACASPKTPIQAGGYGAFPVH
Chain of KDR kinase (790-1356 AA) (P35968 790-1356): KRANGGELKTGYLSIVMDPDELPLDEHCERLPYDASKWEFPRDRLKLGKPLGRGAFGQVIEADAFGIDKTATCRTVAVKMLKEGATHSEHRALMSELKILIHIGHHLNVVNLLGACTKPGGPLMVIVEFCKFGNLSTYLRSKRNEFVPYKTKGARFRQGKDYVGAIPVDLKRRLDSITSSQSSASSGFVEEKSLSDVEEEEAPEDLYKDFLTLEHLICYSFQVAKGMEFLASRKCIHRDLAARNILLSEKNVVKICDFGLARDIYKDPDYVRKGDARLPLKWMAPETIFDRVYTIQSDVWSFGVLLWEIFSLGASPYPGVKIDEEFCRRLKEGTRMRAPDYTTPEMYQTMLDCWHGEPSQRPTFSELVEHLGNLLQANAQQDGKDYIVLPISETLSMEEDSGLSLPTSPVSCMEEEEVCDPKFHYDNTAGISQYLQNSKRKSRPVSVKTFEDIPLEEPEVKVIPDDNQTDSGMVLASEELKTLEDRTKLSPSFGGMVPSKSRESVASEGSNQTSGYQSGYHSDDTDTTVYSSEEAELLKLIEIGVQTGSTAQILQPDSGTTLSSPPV

Row | SMILES | IC50 (KDR kinase (790-1356 AA)) [nM] | IC50 (B-Raf kinase) [nM] | IC50 (pERK in MDA-MB-231 cells) [nM] | IC50 (PLC-PRF-5 cells) [nM]
1 | CN1CCC(Oc2cc(NC(=O)Nc3ccc(Oc4ccnc(NC(=O)C5CC5)c4)c(F)c3)cc(C(F)(F)F)c2)CC1 [Exe. 164] | 30.7 | 71.5 | 198 | 2950
2 | CS(=O)(=O)Nc1cc(NC(=O)Nc2ccc(Oc3ccnc(NC(=O)C4CC4)c3)c(F)c2)cc(C(F)(F)F)c1 [Exe. 165] | 5.5 | 6.6 | 41 | 1070
3 | O=C(Nc1cc(N2CCS(=O)(=O)CC2)cc(C(F)(F)F)c1)Nc1ccc(Oc2ccnc(NC(=O)C3CC3)c2)c(F)c1 [Exe. 166] | 11.5 | 27 | 45.5 | 1640
4 | CN1CCN(Cc2cc(NC(=O)Nc3ccc(Oc4ccnc(NC(=O)C5CC5)c4)c(F)c3)cc(C(F)(F)F)c2)CC1 [Exe. 167] | 16.1 | 23.8 | 262 | 1230
5 | CN1CCC(Nc2ccc(NC(=O)Nc3ccc(Oc4ccnc(NC(=O)C5CC5)c4)c(F)c3)cc2C(F)(F)F)CC1 [Exe. 168] | 12 | 7.9 | 11.6 | 31
6 | O=C(Nc1ccc(Oc2ccnc(NC(=O)C3CC3)c2)c(F)c1)Nc1cc(C(F)(F)F)ncn1 [Exe. 170] | 5.6 | 96 | 31.6 | 230
7 | O=C(Nc1cccc(OC(F)(F)F)c1)Nc1ccc(Oc2ccnc(NC(=O)C3CC3)c2)c(F)c1 [Exe. 175] | 4.9 | 9.8 | 30.5 | 270
8 | O=C(Nc1ccc(OC(F)(F)F)cc1)Nc1ccc(Oc2ccnc(NC(=O)C3CC3)c2)c(F)c1 [Exe. 178] | 5.3 | 34.7 | 159 | 4880
9 | CC(F)(F)c1ccc(F)c(NC(=O)Nc2ccc(Oc3ccnc(NC(=O)C4CC4)c3)c(F)c2)c1 [Exe. 181] | 7.1 | 4.8 | 25.7 | 23
10 | CC(F)(F)c1cc(NC(=O)Nc2ccc(Oc3ccnc(NC(=O)C4CC4)c3)c(F)c2)ccc1Cl [Exe. 182] | 14.7 | 32 | 17 | 752
11 | CC(F)(F)c1cc(NC(=O)Nc2ccc(Oc3ccnc(NC(=O)C4CC4)c3)c(F)c2)ccc1F [Exe. 183] | 13.6 | 56 | 15.7 | 230
12 | O=C(Nc1ccc(Oc2ccnc(NC(=O)C3CC3)c2)c(F)c1)Nc1cc(Cl)ccc1F [Exe. 184] | 7.6 | 73.4 | 310 | 610
13 | O=C(Nc1cc(-c2cccnc2)cc(C(F)(F)F)c1)Nc1ccc(Oc2ccnc(NC(=O)C3CC3)c2)c(F)c1 [Exe. 186] | 5 | 27.5 | 53.3 | 640
14 | CC(C)Nc1cc(NC(=O)Nc2ccc(Oc3ccnc(NC(=O)C4CC4)c3)c(F)c2)cc(C(F)(F)F)c1 [Exe. 187] | 6.8 | 34.3 | 63.8 | 638
15 | CN1CCC(Oc2ccc(NC(=O)Nc3ccc(Oc4ccnc(NC(=O)C5CC5)c4)c(F)c3)cc2C(F)(F)F)CC1 [Exe. 188] | 17.2 | 19 | 23.5 | 34

More lines, main results first:

Row | IC50 (KDR kinase (790-1356 AA)) [nM] | IC50 (B-Raf kinase) [nM] | IC50 (pERK in MDA-MB-231 cells) [nM] | SMILES | IC50 (PLC-PRF-5 cells) [nM]
16 | 10.7 | 29.8 | 19.3 | O=C(Nc1cc(N2CCOCC2)cc(C(F)(F)F)c1)Nc1ccc(Oc2ccnc(NC(=O)C3CC3)c2)c(F)c1 [Exe. 189] | 260
17 | 11.9 | 87 | 74.3 | N#Cc1cc(NC(=O)Nc2ccc(Oc3ccnc(NC(=O)C4CC4)c3)c(F)c2)cc(C(F)(F)F)c1 [Exe. 190] | 875
18 | 11.8 | 10 | 9.4 | Cc1cc(Oc2ccnc(NC(=O)C3CC3)c2)ccc1NC(=O)Nc1ccc(F)c(C(F)(F)F)c1 [Exe. 191] | 2530
19 | 10.9 | 6.8 | 7.4 | Cc1cc(Oc2ccnc(NC(=O)C3CC3)c2)ccc1NC(=O)Nc1cccc(C(F)(F)F)c1 [Exe. 193] | 2300
20 | 10.5 | 8.8 | 9.5 | Cc1cc(Oc2ccnc(NC(=O)C3CC3)c2)ccc1NC(=O)Nc1cccc(OC(F)(F)F)c1 [Exe. 194] | 2320
21 | 6.1 | 13 | 10.1 | Cc1cc(Oc2ccnc(NC(=O)C3CC3)c2)ccc1NC(=O)Nc1cc(OC(F)(F)F)ccc1F [Exe. 195] | 790
22 | 11.8 | 13 | 14.6 | Cc1cc(Oc2ccnc(NC(=O)C3CC3)c2)ccc1NC(=O)Nc1ccc(F)c(OC(F)(F)F)c1 [Exe. 196] | 2500
23 | 14 | 11.7 | 11 | Cc1cc(Oc2ccnc(NC(=O)C3CC3)c2)ccc1NC(=O)Nc1ccc(Cl)c(C(C)(F)F)c1 [Exe. 199] | 3700
24 | 25.1 | 13 | 9.2 | O=C(Nc1ccc(F)c(C(F)(F)F)c1)Nc1ccc(Oc2ccnc(NC(=O)C3CC3)c2)cc1F [Exe. 205] | 1090
25 | 14.9 | 37 | 9.8 | O=C(Nc1cc(F)cc(C(F)(F)F)c1)Nc1ccc(Oc2ccnc(NC(=O)C3CC3)c2)cc1F [Exe. 208] | 640
26 | 8.4 | 9 | 5.9 | O=C(Nc1ccc(Oc2ccnc(NC(=O)C3CC3)c2)cc1F)Nc1cc(C(F)(F)F)ccc1F [Exe. 209] | 51
27 | 11.8 | 19 | 17 | O=C(Nc1ccc(Oc2ccnc(NC(=O)C3CC3)c2)cc1F)Nc1cc(C(F)(F)F)ccc1Cl [Exe. 210] | 636
28 | 7.8 | 6.4 | 2.3 | O=C(Nc1cccc(C(F)(F)F)c1)Nc1ccc(Oc2ccnc(NC(=O)C3CC3)c2)cc1F [Exe. 211] | 190
29 | 5.5 | 20.1 | 21.1 | O=C(Nc1cc(N2CC(F)(F)C2)cc(C(F)(F)F)c1)Nc1ccc(Oc2ccnc(NC(=O)C3CC3)c2)cc1F [Exe. 212] | 177
30 | 13.2 | 19 | 14.5 | O=C(Nc1ccc(F)c(OC(F)(F)F)c1)Nc1ccc(Oc2ccnc(NC(=O)C3CC3)c2)cc1F [Exe. 215] | 618
31 | 10.6 | 10 | 11.8 | CC(F)(F)c1ccnc(NC(=O)Nc2ccc(Oc3ccnc(NC(=O)C4CC4)c3)cc2F)c1 [Exe. 216] | 536
32 | 9.9 | 8.9 | 2.3 | CC(F)(F)c1cccc(NC(=O)Nc2ccc(Oc3ccnc(NC(=O)C4CC4)c3)cc2F)c1 [Exe. 217] | 178
33 | 9.1 | 7.8 | 3.1 | CC(F)(F)c1ccc(F)c(NC(=O)Nc2ccc(Oc3ccnc(NC(=O)C4CC4)c3)cc2F)c1 [Exe. 218] | 21
34 | 11 | 8.3 | 8.8 | CC(F)(F)c1cc(NC(=O)Nc2ccc(Oc3ccnc(NC(=O)C4CC4)c3)cc2F)ccc1Cl [Exe. 219] | 632
